For assay [1], the system named is d(CGCGAATTCGCG)2, Dickerson DNA duplex (ds) (DNA, duplex) CGCGAATTCGCG
The assay is described as follows: ESI-MS, negative mode. Conditions: NH4+ (100 mM ammonium acetate); pH 6.7; equimolar; reference ligand, value not shown.

The subject of assay [2] is single stranded oligonucleotide d(CGCGAATTCGCG) (ss) (DNA, single strand) CGCGAATTCGCG
The assay is described as follows: ESI-IM-MS, negative mode. Conditions: NH4+ (100 mM ammonium acetate); 20% methanol, pH 6.7; 1:10 molar ratio (170 µM compound); very low abundance, none at 1:1.

With `N=C(N)c1ccc(N=NNc2ccc(C(=N)N)cc2)cc1`, the binding result in assay [1] is on record as “yes”.
For `NCCNC(=O)CCN(CCC(=O)NCCN)CCC(=O)NCCN`, in assay [2], the binding entry was “weak”.
As to `O=C(CCN(CCC(=O)NCCNC(=S)Nc1ccccc1)CCC(=O)NCCNC(=S)Nc1ccccc1)NCCNC(=S)Nc1ccccc1`, the binding entry in assay [2] was “weak”.
